Paper PMC6789782, “Safety Pharmacological Evaluation of the Coffee Component, Caffeoylquinic Acid, and Its Metabolites, Using Ex Vivo and In Vitro Profiling Assays” (Pharmaceuticals, 2019)
Read-outs that look alike come from different tables or passages of the source.

Columns and labels:
rat hippocampal slices = assay: Electrophysiological assay of hippocampal slices, epileptiform discharge (ED) recording; settings: ± SEM
Method: A hippocampal slice was placed on the multielectrode array (200 μm distant electrodes) to ensure the multi-electrode grid covered the major surface of the slice. […]
ED frequency (in Hz) was determined as follows: raw data were filtered with a Low Pass filter (Butterworth second order filter) set to 20 Hz. ED number was monitored on-line (epileptiform event amplitudes had to be higher than 15 μV to be counted; a dead time of 200 ms was applied for each epileptiform event detected). ED frequency was averaged using 30-s time intervals. Results are presented as mean frequency of ED for the last 2 min of each condition (± SEM).

GABAA = assay: In vitro profiling, binding assay; set-up: species or system rat; settings: 30 µM
Method: (§1) Binding and functional assays of CGAs with the proteins known to be pharmacological targets related to the CVS, CNS, and GI functions were conducted. […] In the binding assay, we measured the radiation activity of the solution containing filtered proteins that bound to the tested compound or high-affinity ligand, while in the functional assays, we measured the reaction product. The ability of the test compound to interact with the tested targets was measured as the inhibition of ligand binding to the target or reaction product production (% inhibition).

Sodium Channel = assay: In vitro profiling, binding assay; set-up: species or system rat; settings: 30 µM
Method: as §1

[1] = system: Calcium Channel L-Type, Benzothiazepine; assay: In vitro profiling, binding assay; set-up: species or system rat; settings: 30 µM
Method: as §1

Glutamate, NMDA = assay: In vitro profiling, binding assay; set-up: species or system rat; settings: 30 µM
Method: as §1

[2] = system: Calcium Channel L-Type, Dihydropyridine; assay: In vitro profiling, binding assay; set-up: species or system rat; settings: 30 µM
Method: as §1

[3] = system: Calcium Channel L-Type, Phenylalkylamine; assay: In vitro profiling, binding assay; set-up: species or system rat; settings: 30 µM
Method: as §1

[4] = biological target: T1, Peptidase, CTSG (Cathepsin G) (Homo sapiens, UniProt P08311); assay: In vitro profiling, functional assay; assay type: biochemical
T1 sequence (P08311 21-255): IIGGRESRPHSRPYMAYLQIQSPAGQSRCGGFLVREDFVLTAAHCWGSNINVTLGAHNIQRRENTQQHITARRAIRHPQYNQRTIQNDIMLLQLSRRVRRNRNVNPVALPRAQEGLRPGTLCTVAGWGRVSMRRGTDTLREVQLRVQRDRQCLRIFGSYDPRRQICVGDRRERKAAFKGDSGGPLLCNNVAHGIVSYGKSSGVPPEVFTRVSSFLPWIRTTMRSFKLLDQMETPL
Method: as §1

Cyclooxygenase COX-1 = Cyclooxygenase COX-1 (Homo sapiens, UniProt P23219); assay: In vitro profiling, functional assay; assay type: biochemical
Chain of Cyclooxygenase COX-1 (P23219 24-599): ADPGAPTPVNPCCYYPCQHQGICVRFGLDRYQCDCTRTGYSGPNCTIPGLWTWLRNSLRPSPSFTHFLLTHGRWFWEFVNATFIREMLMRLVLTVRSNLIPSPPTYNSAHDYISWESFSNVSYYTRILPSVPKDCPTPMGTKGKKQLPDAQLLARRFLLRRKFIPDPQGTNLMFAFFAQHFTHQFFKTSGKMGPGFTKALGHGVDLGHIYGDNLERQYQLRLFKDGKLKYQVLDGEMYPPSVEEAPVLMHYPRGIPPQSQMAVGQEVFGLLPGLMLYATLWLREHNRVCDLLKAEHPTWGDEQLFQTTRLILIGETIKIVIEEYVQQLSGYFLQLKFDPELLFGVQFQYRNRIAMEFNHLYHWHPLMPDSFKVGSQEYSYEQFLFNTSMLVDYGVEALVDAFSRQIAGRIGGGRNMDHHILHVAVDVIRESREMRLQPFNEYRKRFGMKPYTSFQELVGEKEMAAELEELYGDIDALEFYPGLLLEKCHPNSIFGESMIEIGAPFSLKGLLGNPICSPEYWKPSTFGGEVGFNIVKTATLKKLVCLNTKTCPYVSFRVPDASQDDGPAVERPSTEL
Method: as §1

Monoamine Oxidase MAO-A = biological target: T2, Monoamine Oxidase MAO-A (Homo sapiens, UniProt P21397); assay: In vitro profiling, functional assay; assay type: biochemical
T2 sequence (P21397 1-527): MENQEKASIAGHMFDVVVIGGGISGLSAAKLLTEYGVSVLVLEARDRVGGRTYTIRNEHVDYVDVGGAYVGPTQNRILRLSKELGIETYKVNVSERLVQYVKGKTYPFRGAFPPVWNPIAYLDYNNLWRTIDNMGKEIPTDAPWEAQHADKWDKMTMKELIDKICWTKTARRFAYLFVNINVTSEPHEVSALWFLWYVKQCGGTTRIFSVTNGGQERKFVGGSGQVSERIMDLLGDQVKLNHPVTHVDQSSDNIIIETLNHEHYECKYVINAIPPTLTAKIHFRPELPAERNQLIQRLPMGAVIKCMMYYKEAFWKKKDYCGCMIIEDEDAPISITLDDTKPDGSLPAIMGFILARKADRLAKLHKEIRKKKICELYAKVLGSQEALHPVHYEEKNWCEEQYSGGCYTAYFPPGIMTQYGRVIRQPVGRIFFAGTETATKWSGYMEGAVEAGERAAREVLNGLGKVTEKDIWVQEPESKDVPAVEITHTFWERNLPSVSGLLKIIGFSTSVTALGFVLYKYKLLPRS
Method: as §1

Cyclooxygenase COX-2 = biological target: T3, Cyclooxygenase COX-2 (Homo sapiens, UniProt P35354); assay: In vitro profiling, functional assay; assay type: biochemical
T3 sequence (P35354 18-604): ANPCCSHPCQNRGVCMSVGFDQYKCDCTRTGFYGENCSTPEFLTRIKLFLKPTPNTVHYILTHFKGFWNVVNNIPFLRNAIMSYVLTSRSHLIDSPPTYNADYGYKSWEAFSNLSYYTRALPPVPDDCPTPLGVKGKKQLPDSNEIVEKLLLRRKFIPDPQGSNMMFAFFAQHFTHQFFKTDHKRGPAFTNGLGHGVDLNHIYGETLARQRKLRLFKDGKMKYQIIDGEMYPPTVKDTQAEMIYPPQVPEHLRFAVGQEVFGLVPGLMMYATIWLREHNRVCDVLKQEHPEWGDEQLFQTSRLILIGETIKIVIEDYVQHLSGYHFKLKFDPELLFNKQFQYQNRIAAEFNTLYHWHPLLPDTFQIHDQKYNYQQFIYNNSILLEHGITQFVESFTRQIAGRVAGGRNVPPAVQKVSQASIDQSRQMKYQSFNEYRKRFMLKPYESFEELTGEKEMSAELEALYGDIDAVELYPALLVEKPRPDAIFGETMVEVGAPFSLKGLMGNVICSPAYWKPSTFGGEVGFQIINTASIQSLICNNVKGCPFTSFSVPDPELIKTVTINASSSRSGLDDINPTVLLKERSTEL
Method: as §1

[5] = 10 µM compound, co-exposure with 50 μM 4-AP
[6] = 30 µM, Peptidase, CTSG (Cathepsin G), read-out: % Inhibition
[7] = 30 µM, Cyclooxygenase COX-1, read-out: % Inhibition
[8] = 30 µM, Monoamine Oxidase MAO-A, read-out: % Inhibition

Compound	ED rate (rat hippocampal slices; [5])	% Inhibition (GABAA)	% Inhibition (Sodium Channel)	% Inhibition [1]	% Inhibition (Glutamate, NMDA)	% Inhibition [2]	% Inhibition [3]	inhibition at 30 µM [4, 6]	inhibition at 30 µM (Cyclooxygenase COX-1; [7])	inhibition at 30 µM (Monoamine Oxidase MAO-A; [8])	inhibition at 30 µM (Cyclooxygenase COX-2)	inhibition at 30 µM [4]	inhibition at 30 µM (Cyclooxygenase COX-1)	inhibition at 30 µM (Monoamine Oxidase MAO-A)	ED rate (rat hippocampal slices; follow-up test, 1 µM compound, co-exposure with 4-AP)	% Inhibition ([4]; 30 µM, Peptidase, CTSG (Cathepsin G))	inhibition at 30 µM (Cyclooxygenase COX-2; 30 µM, Cyclooxygenase COX-2, read-out: % Inhibition)
O=C(/C=C/c1ccc(O)c(O)c1)O[C@H]1C[C@@](O)(C(=O)O)C[C@H](O)[C@@H]1O [5-CQA, 5-O-caffeoylquinic acid]	0.38 ± 0.04 Hz	8%	19%	−3%	9%	1%	14%	8%	2%	-5%	7%	–	–	–	–	–	–
COc1cc(/C=C/C(=O)O)ccc1O [FA, ferulic acid]	0.41 ± 0.04 Hz	1%	5%	6%	16%	1%	26%	–	–	–	14%	-2%	5%	5%	–	–	–
O=C(O)/C=C/c1ccc(O)c(O)c1 [CA, caffeic acid]	0.55 ± 0.07 Hz	18%	1%	−3%	5%	7%	21%	–	–	–	9%	–	6%	0%	0.35 ± 0.03 Hz	1%	–
COc1cc(/C=C/C(=O)O[C@H]2C[C@@](O)(C(=O)O)C[C@H](O)[C@@H]2O)ccc1O [5-FQA, 5-O-feruloylquinic acid]	0.46 ± 0.05 Hz	15%	10%	6%	10%	6%	19%	2%	11%	0%	–	–	–	–	–	–	18%
